# Tests used:
# [1] = test system: human lung cancer strain NCI-H441; assay: cells; conditions: NCI-H441, 96 h, read-out: NCI-H441 IC50 (nM)
# [2] = target: GDP-bound NRAS wild-type protein (Homo sapiens, UniProt P01111); assay: Binding to NRAS by surface plasmon resonance (SPR), Single Cycle Kinetics; conditions: SPR; KD ratio class
# [3] = target: GDP-bound HRAS wild-type protein (Homo sapiens, UniProt P01112); assay: Binding to HRAS by surface plasmon resonance (SPR), Single Cycle Kinetics; conditions: SPR; KD ratio class
# GDP-bound HRAS wild-type protein, sequence (P01112 whole entry): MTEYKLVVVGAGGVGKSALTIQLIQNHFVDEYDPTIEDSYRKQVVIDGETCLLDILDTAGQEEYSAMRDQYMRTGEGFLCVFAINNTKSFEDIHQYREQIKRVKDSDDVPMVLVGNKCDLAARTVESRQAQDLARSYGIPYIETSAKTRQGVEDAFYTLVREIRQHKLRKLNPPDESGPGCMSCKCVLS
# GDP-bound NRAS wild-type protein, sequence (P01111 whole entry): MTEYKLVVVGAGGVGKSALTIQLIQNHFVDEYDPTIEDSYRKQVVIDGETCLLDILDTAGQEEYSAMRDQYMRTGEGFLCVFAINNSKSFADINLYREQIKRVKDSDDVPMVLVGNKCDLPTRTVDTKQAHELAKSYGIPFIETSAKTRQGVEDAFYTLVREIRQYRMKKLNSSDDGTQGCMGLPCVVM
IC50 [1],Compound,NRAS/KRAS (ratio of KD value for GDP-bound NRAS wild-type protein to KD value for KRAS) [2],HRAS/KRAS (ratio of KD value for GDP-bound HRAS wild-type protein to KD value for KRAS) [3]
38.6 nM,CCO[C@@H]1C[C@H]2C(=O)NC3(CCCC3)C(=O)N(C)[C@@H](C3CCCC3)C(=O)N(C)[C@H](C(=O)N(C)C)CC(=O)N(C)[C@@H](CC(C)C)C(=O)N[C@@H]([C@@H](C)CC)C(=O)N(C)CC(=O)N(C)[C@H]3C/C=C\CCN(C3=O)[C@@H](CC3CCC(F)(F)CC3)C(=O)N(C)CC(=O)N[C@@H](CCc3cc(F)c(C(F)(F)F)c(F)c3)C(=O)N2C1 [PP1459],A (a compound having 10 or more and less than 20 is denoted as A),A (a compound having 10 or more and less than 20 is denoted as A)
32.9 nM,CCO[C@@H]1C[C@H]2C(=O)NC3(CCC3)C(=O)N(C)[C@@H](C3CCCC3)C(=O)N(C)[C@H](C(=O)N(C)C)CC(=O)N(C)[C@@H](CC(C)(C)C)C(=O)N[C@@H]([C@@H](C)CC)C(=O)N(C)CC(=O)N(C)[C@H]3C/C=C\CCN(C3=O)[C@@H](CC3CCC(F)(F)CC3)C(=O)N(C)CC(=O)N[C@@H](CCc3cc(F)c(C(F)(F)F)c(F)c3)C(=O)N2C1 [PP1460],A (a compound having 10 or more and less than 20 is denoted as A),A (a compound having 10 or more and less than 20 is denoted as A)
121 nM,CC[C@H](C)[C@@H]1NC(=O)[C@H](CC)N(C)C(=O)C[C@@H](C(=O)N(C)C)N(C)C(=O)[C@H](C2CCCC2)N(C)C(=O)C2(CCC2)NC(=O)[C@@H]2CCCN2C(=O)[C@H](CCc2cc(F)c(C(F)(F)F)c(F)c2)NC(=O)CN(C)C(=O)[C@H](CC2CCC(F)(F)CC2)N2CC/C=C\C[C@@H](C2=O)N(C)C(=O)CN(C)C1=O [PP1461],A (a compound having 10 or more and less than 20 is denoted as A),A (a compound having 10 or more and less than 20 is denoted as A)
34.1 nM,CC[C@H](C)[C@@H]1NC(=O)[C@H](CC)N(C)C(=O)C[C@@H](C(=O)N(C)C)N(C)C(=O)[C@H](C2CCCC2)N(C)C(=O)C2(CCC2)NC(=O)[C@@H]2C[C@@H](C(F)(F)F)CN2C(=O)[C@H](CCc2cc(F)c(C(F)(F)F)c(F)c2)NC(=O)CN(C)C(=O)[C@H](CC2CCCCC2)N2CC/C=C\C[C@@H](C2=O)N(C)C(=O)CN(C)C1=O [PP1465],A (a compound having 10 or more and less than 20 is denoted as A),A (a compound having 10 or more and less than 20 is denoted as A)
22.2 nM,CCO[C@@H]1C[C@H]2C(=O)NC3(CCC3)C(=O)N(C)[C@@H](C3CCCC3)C(=O)N(C)[C@H](C(=O)N(C)C)CC(=O)N(C)[C@@H](CC3CCC3)C(=O)N[C@@H]([C@@H](C)CC)C(=O)N(C)CC(=O)N(C)[C@H]3C/C=C\CCN(C3=O)[C@@H](CC3CCCCC3)C(=O)N(C)CC(=O)N[C@@H](CCc3cc(F)c(C(F)(F)F)c(F)c3)C(=O)N2C1 [PP1469],A (a compound having 10 or more and less than 20 is denoted as A),A (a compound having 10 or more and less than 20 is denoted as A)
111 nM,CCO[C@@H]1C[C@H]2C(=O)NC3(CCCC3)C(=O)N(C)[C@@H](C3CCCC3)C(=O)N(C)[C@H](C(=O)N(C)C)CC(=O)N(C)[C@@H](C)C(=O)N[C@@H]([C@@H](C)CC)C(=O)N(C)CC(=O)N(C)[C@H]3C/C=C\CCN(C3=O)[C@@H](CC3CCCCC3)C(=O)N(C)CC(=O)N[C@@H](CCc3cc(F)c(C(F)(F)F)c(F)c3)C(=O)N2C1 [PP1470],A (a compound having 10 or more and less than 20 is denoted as A),A (a compound having 10 or more and less than 20 is denoted as A)
48.2 nM,CC[C@H](C)[C@@H]1NC(=O)[C@H](CC)N(C)C(=O)C[C@@H](C(=O)N(C)C)N(C)C(=O)[C@H](C2CCCC2)N(C)C(=O)C2(CCC2)NC(=O)[C@@H]2C[C@H](C)CN2C(=O)[C@H](CCc2cc(F)c(C(F)(F)F)c(F)c2)NC(=O)CN(C)C(=O)[C@H](CC2CCCCC2)N2CC/C=C\C[C@@H](C2=O)N(C)C(=O)CN(C)C1=O [PP1471],A (a compound having 10 or more and less than 20 is denoted as A),A (a compound having 10 or more and less than 20 is denoted as A)
36.6 nM,CCO[C@@H]1C[C@H]2C(=O)NC3(CCCC3)C(=O)N(C)[C@@H](C3CCCC3)C(=O)N(C)[C@H](C(=O)N(C)C)CC(=O)N(C)[C@@H](CC(C)C)C(=O)N[C@@H]([C@@H](C)CC)C(=O)N(C)CC(=O)N(C)[C@H]3C/C=C\CCN(C3=O)[C@@H](CC3CCCCC3)C(=O)N(C)CC(=O)N[C@@H](CCc3cc(F)c(C(F)(F)F)c(F)c3)C(=O)N2C1 [PP1473],A (a compound having 10 or more and less than 20 is denoted as A),A (a compound having 10 or more and less than 20 is denoted as A)
48.2 nM,CCO[C@@H]1C[C@H]2C(=O)NC3(CCC3)C(=O)N(C)[C@@H](C3CCCC3)C(=O)N(C)[C@H](C(=O)N(C)C)CC(=O)N(C)[C@@H](CC(C)(C)C)C(=O)N[C@@H]([C@@H](C)CC)C(=O)N(C)CC(=O)N(C)[C@H]3C/C=C\CCN(C3=O)[C@@H](CC3CCCCC3)C(=O)N(C)CC(=O)N[C@@H](CCc3cc(F)c(C(F)(F)F)c(F)c3)C(=O)N2C1 [PP1474],A (a compound having 10 or more and less than 20 is denoted as A),A (a compound having 10 or more and less than 20 is denoted as A)
48.9 nM,CC[C@H](C)[C@@H]1NC(=O)[C@H](CC)N(C)C(=O)C[C@@H](C(=O)N(C)C)N(C)C(=O)[C@H](C2CCCC2)N(C)C(=O)C2(CCC2)NC(=O)[C@@H]2CCCN2C(=O)[C@H](CCc2cc(F)c(C(F)(F)F)c(F)c2)NC(=O)CN(C)C(=O)[C@H](CC2CCCCC2)N2CC/C=C\C[C@@H](C2=O)N(C)C(=O)CN(C)C1=O [PP1475],A (a compound having 10 or more and less than 20 is denoted as A),A (a compound having 10 or more and less than 20 is denoted as A)
216 nM,CCO[C@@H]1C[C@H]2C(=O)NC3(CCC3)C(=O)N(C)[C@@H](C3CCCC3)C(=O)N(C)[C@H](C(=O)N(C)C)CC(=O)N(C)[C@@H](CC3CC3)C(=O)N[C@@H]([C@@H](C)CC)C(=O)N(C)CC(=O)N(C)[C@H]3C/C=C\CCN(C3=O)[C@@H](Cc3ccc(F)cc3C)C(=O)N(C)CC(=O)N[C@@H](CCc3ccc(Cl)c(Cl)c3)C(=O)N2C1 [PP1476],A (a compound having 10 or more and less than 20 is denoted as A),B (a compound having 3 or more and less than 10 is denoted as B)

# From US20250230193A1, “CYCLIC COMPOUND HAVING SELECTIVE KRAS INHIBITORY EFFECT ON HRAS AND NRAS” (CHUGAI SEIYAKU KABUSHIKI KAISHA, priority 2022, published 2025)
